Reference: patent publication US20060135500A1, “Novel oral pharmaceutical suspension of cefdinir crystal” (Astellas Pharma Inc., priority 2004, published 2006)

Assays:
Format in all cases: physicochemical
[1] = Dispersibility comparison assay, Method 1 (visual observation of suspension in test tube); details: summary statement
Method: The dispersibility of two crystal forms of Cefdinir was compared by evaluating sedimentation rates of two crystal forms. The evaluating sedimentation rate was conducted by using two methods as follow. About 1250 mg of crystal form A or the monohydrate were dispersed in 50 mL of water (125 mg/5 mL), and the suspensions were vigorously shaken by hand. […] The pictures of suspension states were taken with time.

[2] = Dispersibility comparison assay, Method 2 (change of transmittance at 650 nm); details: 5 mg in 10 mL of water (0.5 mg/mL)
Method: The dispersibility of two crystal forms of Cefdinir was compared by evaluating sedimentation rates of two crystal forms. The evaluating sedimentation rate was conducted by using two methods as follow.
5 mg of crystal form A or the monohydrate were dispersed in 10 mL of water (sample concentration: 0.5 mg/mL), and the suspensions were vigorously shaken. Then, the dispersed suspensions were transferred in the cell for UV measurement, and changes of the transmittances at 650 nm were measured.

[3] = Solvent medium transformation (suspension in water or ethanol, PXRD of residual solid); details: water or ethanol (99.5), room temperature
Method: Form A and the monohydrate were suspended in water or ethanol (99.5) at room temperature, and the powder X-ray diffraction (PXRD) patterns of the residual solid materials were measured (Bruker AXS D8 Discover with GADDS).

C=CC1=C(C(=O)O)N2C(=O)C(NC(=O)C(=NO)c3csc(N)n3)[C@H]2SC1 (single isomer, unassigned) [crystal form C, 7-[2-(2-aminothiazol-4-yl)-2-hydroxyiminoacetamido]-3-vinyl-3-cephem-4-carboxyl ic acid (syn isomer)]
dispersibility in aqueous solvent [1]: higher than that of crystal form A | sedimentation rate in aqueous solvent [1]: lower than that of crystal form A

C=CC1=C(C(=O)O)N2C(=O)C(NC(=O)C(=NO)c3csc(N)n3)[C@H]2SC1 (single isomer, unassigned) [form A, 7-[2-(2-aminothiazol-4-yl)-2-hydroxyiminoacetamido]-3-vinyl-3-cephem-4-carboxyl ic acid (syn isomer)]
change of transmittance of suspension at 650 nm [2]: faster increase than that of the monohydrate | crystalline conversion in aqueous and ethanol suspensions (PXRD of residual solid) [3]: no crystalline conversion to other crystal form
